What follows are compounds tested against GluA1o-γ8 (GRIA1o-CACNG8 fusion construct) (Homo sapiens (Human), UniProt P42261+Q8WXS5) (assay: Calcium flux assay (FLIPR), inhibition of TARP γ8 dependent AMPA receptor activity). Details: GluA1o-γ8 (GRIA1o-CACNG8 fusion) in HEK293 cells, calcium flux after 15 μM glutamate.
Format: cell-based
In short: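 HEK293 cells stably expressing a 1:1 GRIA1o–CACNG8 fusion were loaded with Calcium-5/6 dye plus compound in pH 7.4 HEPES-buffered saline. FLIPR calcium flux after 15 μM glutamate was normalized to untreated and 10 μM CP465022 controls, and a four-parameter logistic fit gave pIC50.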

Sequence of GluA1o-γ8 (GRIA1o-CACNG8 fusion construct) (P42261 other isoform, or with tags, fused parts or gaps): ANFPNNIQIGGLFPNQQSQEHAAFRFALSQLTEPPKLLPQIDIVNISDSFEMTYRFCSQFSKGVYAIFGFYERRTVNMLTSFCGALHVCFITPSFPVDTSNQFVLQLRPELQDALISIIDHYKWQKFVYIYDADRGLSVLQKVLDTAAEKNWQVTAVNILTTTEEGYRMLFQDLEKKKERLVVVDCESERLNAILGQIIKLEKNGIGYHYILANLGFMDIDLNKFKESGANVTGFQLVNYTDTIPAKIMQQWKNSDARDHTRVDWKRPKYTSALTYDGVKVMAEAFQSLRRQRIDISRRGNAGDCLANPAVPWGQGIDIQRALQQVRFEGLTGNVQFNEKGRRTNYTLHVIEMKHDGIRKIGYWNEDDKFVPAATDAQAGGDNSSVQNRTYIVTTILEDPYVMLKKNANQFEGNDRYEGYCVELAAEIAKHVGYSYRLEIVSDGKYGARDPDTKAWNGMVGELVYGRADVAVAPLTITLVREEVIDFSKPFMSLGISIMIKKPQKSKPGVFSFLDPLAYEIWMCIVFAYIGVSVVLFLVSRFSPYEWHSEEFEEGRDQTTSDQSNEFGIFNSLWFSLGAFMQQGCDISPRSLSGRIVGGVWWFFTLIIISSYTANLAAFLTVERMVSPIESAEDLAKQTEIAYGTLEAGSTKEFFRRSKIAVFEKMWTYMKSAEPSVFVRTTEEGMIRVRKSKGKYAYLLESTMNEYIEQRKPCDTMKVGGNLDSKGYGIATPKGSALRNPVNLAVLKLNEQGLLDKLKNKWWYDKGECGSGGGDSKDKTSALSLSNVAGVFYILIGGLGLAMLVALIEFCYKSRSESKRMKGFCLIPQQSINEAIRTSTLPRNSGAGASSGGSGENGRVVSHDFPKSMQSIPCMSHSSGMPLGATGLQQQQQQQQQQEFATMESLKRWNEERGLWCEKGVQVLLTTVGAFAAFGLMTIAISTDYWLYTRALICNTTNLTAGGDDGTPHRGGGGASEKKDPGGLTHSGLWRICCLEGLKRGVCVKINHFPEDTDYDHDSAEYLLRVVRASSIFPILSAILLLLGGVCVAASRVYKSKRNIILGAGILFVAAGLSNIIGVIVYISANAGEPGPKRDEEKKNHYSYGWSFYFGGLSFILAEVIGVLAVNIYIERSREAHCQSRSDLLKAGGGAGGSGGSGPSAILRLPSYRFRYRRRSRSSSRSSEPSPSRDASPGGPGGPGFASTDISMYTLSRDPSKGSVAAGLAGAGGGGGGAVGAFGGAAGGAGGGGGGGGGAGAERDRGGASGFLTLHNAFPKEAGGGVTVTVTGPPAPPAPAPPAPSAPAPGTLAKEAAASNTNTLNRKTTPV

Compound | IC50
FC(F)(F)c1ccc2ncn(-c3ccc4[nH]ncc4c3)c2n1 [Example 226, 3-(1H-Indazol-5-yl)-5-(trifluoromethyl)imidazo[4,5-b]pyridine] | 398 nM
FC(F)(F)c1nc2ccc(-c3ccccn3)nc2n1-c1ccc2[nH]ncc2c1 [Example 320, 3-(1H-Indazol-5-yl)-5-(2-pyridyl)-2-(trifluoromethyl)imidazo[4,5-b]pyridine] | 200 nM
COC(=O)CCc1nc2ccc(C(F)(F)F)nc2n1-c1ccc2c(c1)CC(=O)N2 [Example 183, Methyl 3-[3-(2-oxoindolin-5-yl)-5-(trifluoromethyl)imidazo[4,5-b]pyridin-2-yl]propanoate] | 2000 nM
Cc1ccc2nc(C(C)C)n(-c3ccc4c(c3)CC(=O)N4)c2n1 [Example 84, 5-(2-Isopropyl-5-methyl-imidazo[4,5-b]pyridin-3-yl)indolin-2-one] | 63.1 nM
Cc1cc(-n2cc(O)c3ccc(C(F)(F)F)nc32)cc2cn[nH]c12 [Example 339, 1-(7-Methyl-1H-indazol-5-yl)-6-(trifluoromethyl)pyrrolo[2,3-b]pyridin-3-ol] | 79.4 nM
c1ccc(-c2nc3cccnc3n2-c2ccc3[nH]ccc3c2)cc1 [Example 26, 3-(1H-Indol-5-yl)-2-phenyl-imidazo[4,5-b]pyridine] | 501 nM
N#Cc1n[nH]c2ccc(-n3c(C(F)(F)F)nc4ccc(C(F)(F)F)nc43)cc12 [Example 295, 5-[2,5-Bis(trifluoromethyl)imidazo[4,5-b]pyridin-3-yl]-1H-indazole-3-carbonitrile] | 39.8 nM
Cc1ccc2nc(C3CC3)n(-c3ccc4[nH]ncc4c3)c2n1 [Example 147, 2-Cyclopropyl-3-(1H-indazol-5-yl)-5-methyl-imidazo[4,5-b]pyridine] | 10 nM
FC(F)(F)c1ccc2cc(-c3ccccc3)n(-c3ccc4[nH]ccc4c3)c2n1 [Example 388, 1-(1H-Indol-5-yl)-2-phenyl-6-(trifluoromethyl)pyrrolo[2,3-b]pyridine] | 7.94 nM
FC(F)(F)c1ccc(-c2nc3cccnc3n2-c2ccc3[nH]ncc3c2)cc1 [Example 176, 3-(1H-Indazol-5-yl)-2-[4-(trifluoromethyl)phenyl]imidazo[4,5-b]pyridine] | 10000 nM
Cc1ccc(-c2nc3ccc(C(F)(F)F)nc3n2-c2ccc3[nH]ncc3c2)cc1 [Example 123, 3-(1H-Indazol-5-yl)-2-(p-tolyl)-5-(trifluoromethyl)imidazo[4,5-b]pyridine] | 3.98 nM
FC(F)(F)Oc1ccc(-c2nc3cccnc3n2-c2ccc3[nH]ncc3c2)cc1 [Example 177, 3-(1H-Indazol-5-yl)-2-[4-(trifluoromethoxy)phenyl]imidazo[4,5-b]pyridine] | 12600 nM
Cc1ccc2ccn(-c3cc(F)c4c(c3)CC(=O)N4)c2n1 [Example 379, 7-Fluoro-5-(6-methylpyrrolo[2,3-b]pyridin-1-yl)indolin-2-one] | 100 nM
O=c1[nH]c2ccc(-n3c(C(F)(F)F)nc4ccc(C(F)(F)F)nc43)cc2o1 [Example 236, 6-[2,5-Bis(trifluoromethyl)imidazo[4,5-b]pyridin-3-yl]-3H-1,3-benzoxazol-2-one] | 6.31 nM

Compounds with a lower IC50, results first:

IC50 | Compound
0.158 nM | Cc1cc(-n2c(C(F)F)nc3ccc(C(F)(F)F)nc32)cc2c1NC(=O)C2 [Example 287, 5-[2-(Difluoromethyl)-5-(trifluoromethyl)imidazo[4,5-b]pyridin-3-yl]-7-methyl-indolin-2-one]
0.0501 nM | Cc1cc(-n2c(-c3ccnc(F)c3)nc3ccc(C(F)(F)F)nc32)cc2cn[nH]c12 [Example 217, 2-(2-Fluoro-4-pyridyl)-3-(7-methyl-1H-indazol-5-yl)-5-(trifluoromethyl)imidazo[4,5-b]pyridine]
0.00794 nM | Cc1cc(-n2c(C(C)C)cc3ccc(C(F)(F)F)nc32)cc2cn[nH]c12 [Example 370, 2-Isopropyl-1-(7-methyl-1H-indazol-5-yl)-6-(trifluoromethyl)pyrrolo[2,3-b]pyridine]
0.0631 nM | Cc1cc(-n2c(C(F)(F)F)nc3ccc(C(F)(F)F)nc32)cc2sc(=O)[nH]c12 [Example 281, 6-[2,5-Bis(trifluoromethyl)imidazo[4,5-b]pyridin-3-yl]-4-methyl-3H-1,3-benzothiazol-2-one]
0.0316 nM | Cc1cc(-n2c(C3CC3)nc3ccc(C(F)(F)F)nc32)cc2cn[nH]c12 [Example 255, 2-Cyclopropyl-3-(7-methyl-1H-indazol-5-yl)-5-(trifluoromethyl)imidazo[4,5-b]pyridine]
0.794 nM | Fc1ccc(-c2nc3ccc(C4CC4)nc3n2-c2ccc3[nH]ncc3c2)cc1 [Example 86, 5-Cyclopropyl-2-(4-fluorophenyl)-3-(1H-indazol-5-yl)imidazo[4,5-b]pyridine]
0.631 nM | CC(C)c1cc2ccc(C(F)(F)F)nc2n1-c1cnc2[nH]ccc2c1 [Example 391, 2-Isopropyl-1-(1H-pyrrolo[2,3-b]pyridin-5-yl)-6-(trifluoromethyl)pyrrolo[2,3-b]pyridine]
0.0794 nM | Cc1cc(-n2c(C3(F)CC3)nc3ccc(C(F)(F)F)nc32)cc2cn[nH]c12 [Example 259, 2-(1-Fluorocyclopropyl)-3-(7-methyl-1H-indazol-5-yl)-5-(trifluoromethyl)imidazo[4,5-b]pyridine]
0.0398 nM | C=Cc1cc(-n2c(C(F)(F)F)nc3ccc(C(F)(F)F)nc32)cc2cn[nH]c12 [Example 189, 2,5-Bis(trifluoromethyl)-3-(7-vinyl-1H-indazol-5-yl)-3H-imidazo[4,5-b]pyridine]
0.631 nM | Cc1ccnc2c1nc(C(F)(F)F)n2-c1cc(Cl)c2[nH]ncc2c1 [Example 202, 3-(7-Chloro-1H-indazol-5-yl)-7-methyl-2-(trifluoromethyl)imidazo[4,5-b]pyridine]
0.2 nM | O=c1[nH]c2c(Br)cc(-n3c(C(F)(F)F)nc4ccc(C(F)(F)F)nc43)cc2o1 [Example 290, 6-[2,5-Bis(trifluoromethyl)imidazo[4,5-b]pyridin-3-yl]-4-bromo-3H-1,3-benzoxazol-2-one]
0.00501 nM | FC(F)(F)c1ccc2nc(C3CC3)n(-c3cc(Cl)c4[nH]ncc4c3)c2n1 [Example 307, 3-(7-Chloro-1H-indazol-5-yl)-2-cyclopropyl-5-(trifluoromethyl)imidazo[4,5-b]pyridine]
0.794 nM | O=C1Cc2cc(-n3c(-c4ccc(F)cc4)cc4ccc(F)nc43)ccc2N1 [Example 350, 5-[6-Fluoro-2-(4-fluorophenyl)pyrrolo[2,3-b]pyridin-1-yl]indolin-2-one]
